Assay results: patent US8637468B2, “Synthetic cholesterylamine-linker derivatives for agent delivery into cells” (The University of Kansas, priority 2009, dated 2014)
Read-outs that look alike come from different tables or passages of the source.

Key:
[1] = tested on: plasma membranes of living Jurkat lymphocytes; test: Saturation binding of fluorescent probes to living Jurkat lymphocytes (flow cytometry); parameters: species or system human; conditions: for Bmax (×10^5, 16° C.) / Kd / Bmax (×10^5, 37° C.): media containing 10% FBS, free cholesterol (200 μM, 10% DMSO) as competitor; for binding to mammalian cells (affinity/efficacy, in words): high concentrations of serum (10%)
Procedure: Jurkat lymphocytes (human acute leukemia, ATCC #TIB-152) were cultivated in Roswell Park Memorial Institute (RPMI) 1640 medium supplemented with Fetal Bovine Serum (FBS, 10%), penicillin (100 units/mL), and streptomycin (100 μg/mL) in a humidified 5% CO2 incubator at 37° C. Media used for cell culture and all wash steps contained antibiotics and 10% FBS unless otherwise noted.
(§1) Cells were suspended at 300,000 cells/mL in RPMI media containing 10% FBS. Ezetimibe (100 μM; diluted 1:1000 into media from a 100 mM stock in DMSO; 0.1% final DMSO concentration), free cholesterol (200 μM; diluted 1:10 into media from a 2 mM stock in DMSO; 10% final DMSO concentration to enhance cholesterol solubility) or vehicle control (DMSO) was added in competition experiments. Cell suspensions containing the competitor or vehicle control were prepared as 1 mL aliquots in 1.5 mL eppindorf tubes. Fluorescent probes were added at concentrations from 0 nM to 2500 nM (diluted 1:1000 into media from stocks in DMSO). Once the probe was added and well mixed, the samples were split into three tubes each containing 330 μL. Cells were incubated at 16° C. for 10 min or 37° C. for 5 minutes to limit endocytosis. After this incubation, the samples were washed once with RPMI 1640 containing 0.5% FBS (to minimize efflux of the probe from the cell surface) and propidium iodide (3 μM). Samples were immediately analyzed by flow cytometry or confocal laser-scanning microscopy.
Populations of 10,000 Jurkat cells were analyzed for each sample using an Accuri C6 flow cytometer equipped with 488 nm and 640 nm solid-state lasers. Live cells were gated using both forward scattering (FSC) and side scattering (SSC) dot plots to identify cellular physical properties of size and granularity and propidium iodide to identify cells with compromised membranes. The average cellular fluorescence upon excitation at 488 nm was plotted against probe concentration, and the data analyzed as total binding (no competitor added) and a linear non-specific binding component (with cholesterol or ezetimibe as a specific competitor) to calculate specific binding curves. Using GraphPad Prism 5.0 software, these curves were analyzed with a one site with hill slope binding model to determine the relative apparent Kd and Bmax values listed in Table 1 below.
Using free cholesterol (compound 1, 200 μM, 10% DMSO) as a competitor, we quantified the relative affinities (Kd, app) and efficacies (Bmax) of compounds 4-12 in saturation binding experiments at both 16° C. (to limit endocytosis) and 37° C. (FIG. 4 and Table 1). These experiments confirmed the combined importance the N-alkyl substituent of cholesterylamine, an anionic functional group, and a spacer residue such as β-alanine to engender high affinity binding to cell surfaces and facilitate subsequent endocytosis.

[2] = tested on: Jurkat lymphocytes; test: Confocal laser scanning microscopy of living Jurkat lymphocytes treated with fluorescent probes; format: cell-based, human; conditions: 2 μM, 10% serum
Procedure: FIG. 3 includes micrographs showing differential interference contrast (DIC) and confocal laser scanning microscopy of living Jurkat lymphocytes in media containing 10% serum treated at 37° C. with fluorescent compound 4 (Panels A-E), compound 6 (F-G), and compound 12 (H-I) for 5 min or 1 h (2 μM). In C and D, ezetimibe (compound 3, 100 μM in 0.1% DMSO) and cholesterol (compound 1, 200 μM in 10% DMSO) were included as competitors to block uptake via cell surface receptors.
An inverted Leica TCS SPE confocal laser-scanning microscope fitted with a Leica 63× oil-immersion objective was employed for imaging. Fluorescent probes were excited with a 488 nm solid-state laser and emitted photons were collected from 495-600 nm. Propidium iodide, used to counterstain dead cells red fluorescent, was excited with a 532 nm solid-state laser and emitted photons were collected from 650-800 nm. To image living cells, 50 μL of cells in media was pipetted to form a small droplet in the center of a coverslip fitted with a press-to-seal silicone isolator (Invitrogen). A microscope slide was added to the top of the coverslip to create a column of media containing living cells. To allow accurate comparisons of differences in cellular fluorescence, laser power and PMT gain settings were identical for all samples.
as §1, with “Once the probe was added and well mixed, the samples were split into three tubes each containing 330 μL. Cells were incubated at 16° C. for 10 min or 37° C. for 5 minutes to limit endocytosis. After this incubation, the samples were washed once with RPMI 1640 containing 0.5% FBS (to minimize efflux of the probe from the cell surface) and propidium iodide (3 μM).” left out

[3] = 16° C., 10 min, read-out: Kd, app (nM, 16° C.)
[4] = 37° C., 5 min, read-out: Kd, app (nM, 37° C.)

SMILES	Bmax (×10^5, 16° C.) ([1]; 16° C., 10 min)	Kd [1, 3]	Bmax (×10^5, 37° C.) ([1]; 37° C., 5 min)	Kd [1, 4]	binding to mammalian cells (affinity/efficacy, in words) [1]	fluorescent staining of cells ([2]; 5 minutes at 37° C.)	cellular binding, uptake and localization ([2]; after 1 hour, 37° C.)	melting point	cellular binding and cellular uptake compared with compound 4 ([2]; 5 min or 1 h, 37° C.)
Cc1cc(C(=O)N[C@@H](CCC(=O)O)C(=O)NCCC(=O)NCCCN[C@H]2CC[C@@]3(C)C(=CC[C@H]4[C@@H]5CC[C@H]([C@H](C)CCCC(C)C)[C@@]5(C)CC[C@@H]43)C2)ccc1-c1c2cc(F)c(=O)cc-2oc2cc(O)c(F)cc12 [compound 4, (4S)-5-{[3-({3-[3β-Cholest-5-en-3-ylamino]propyl}amino)-3-oxopropyl]amino}-4-{[4-(2,7-difluoro-6-hydroxy-3-oxo-3H-xanthen-9-yl)-3-methylbenzoyl]amino}-5-oxopentanoic acid]	2.31 ± 0.14 ×10^5	403 ± 49 nM	2.54 ± 0.12 ×10^5	344 ± 32 nM	high affinity/efficacy	robust fluorescent staining of cellular plasma membranes	enhanced cellular binding, uptake of the probe, and localization of compound 4 in transferrin-positive early/recycling endosomes		
Cc1cc(C(=O)N[C@@H](CCC(=O)O)C(=O)N[C@@H](CCC(=O)O)C(=O)NCCC(=O)NCCCN[C@H]2CC[C@@]3(C)C(=CC[C@H]4[C@@H]5CC[C@H]([C@H](C)CCCC(C)C)[C@@]5(C)CC[C@@H]43)C2)ccc1-c1c2cc(F)c(=O)cc-2oc2cc(O)c(F)cc12 [compound 5, (4S)-5-{[(1S)-3-Carboxy-1-({[3-({3-[3β-cholest-5-en-3-ylamino]propyl}amino)-3-oxopropyl]amino}carbonyl)propyl]amino}-4-{[4-(2,7-difluoro-6-hydroxy-3-oxo-3H-xanthen-9-yl)-3-methylbenzoyl]amino}-5-oxopentanoic acid]	3.93 ± 0.64 ×10^5	767 ± 244 nM	3.01 ± 0.26 ×10^5	449 ± 74 nM	high affinity/efficacy				
Cc1cc(C(=O)NCC(=O)NCCC(=O)NCCCN[C@H]2CC[C@@]3(C)C(=CC[C@H]4[C@@H]5CC[C@H]([C@H](C)CCCC(C)C)[C@@]5(C)CC[C@@H]43)C2)ccc1-c1c2cc(F)c(=O)cc-2oc2cc(O)c(F)cc12 [compound 6, N-(2-{[3-({3-[3β-Cholest-5-en-3-ylamino]propyl}amino)-3-oxopropyl]amino}-2-oxoethyl)-4-(2,7-difluoro-6-hydroxy-3-oxo-3H-xanthen-9-yl)-3-methylbenzamide]			NC^b (Not calculated due to low efficacy (Bmax<0.4×105))					200 to 203 °C	
Cc1cc(C(=O)N[C@@H](CCC(=O)O)C(=O)N[C@@H](CCC(=O)O)C(=O)NCCCN[C@H]2CC[C@@]3(C)C(=CC[C@H]4[C@@H]5CC[C@H]([C@H](C)CCCC(C)C)[C@@]5(C)CC[C@@H]43)C2)ccc1-c1c2cc(F)c(=O)cc-2oc2cc(O)c(F)cc12 [compound 7, (4S)-5-(((2S)-4-carboxy-1-((3-[3β-cholest-5-en-3-ylamino]propyl)amino)-1-oxobutan-2-yl)amino)-4-(4-(2,7-difluoro-6-hydroxy-3-oxo-3H-xanthen-9-yl)-3-methylbenzamido)-5-oxopentanoic acid]			3.2 ± 1.3 ×10^5	1540 ± 1140 nM				175 to 178 °C	
CC[C@H](CC[C@@H](C)[C@H]1CC[C@H]2[C@@H]3CC=C4C[C@@H](NCCCNC(=O)CCNC(=O)[C@H](CCC(=O)O)NC(=O)c5ccc(-c6c7cc(F)c(=O)cc-7oc7cc(O)c(F)cc67)c(C)c5)CC[C@]4(C)[C@H]3CC[C@]12C)C(C)C [compound 8, (4S)-5-{[3-({3-[3β-Sitost-5-en-3-ylamino]propyl}amino)-3-oxopropyl]amino}-4-{[4-(2,7-difluoro-6-hydroxy-3-oxo-3H-xanthen-9-yl)-3-methylbenzoyl]amino}-5-oxopentanoic acid]	0.73 ± 0.03 ×10^5	286 ± 27 nM	1.3 ± 0.29 ×10^5	435 ± 221 nM					
Cc1cc(C(=O)N[C@@H](CCC(=O)O)C(=O)NCCC(=O)NCCCO[C@H]2CC[C@@]3(C)C(=CC[C@H]4[C@@H]5CC[C@H]([C@H](C)CCCC(C)C)[C@@]5(C)CC[C@@H]43)C2)ccc1-c1c2cc(F)c(=O)cc-2oc2cc(O)c(F)cc12 [compound 9, (4S)-5-{[3-({3-[3β-Cholest-5-en-3-yloxy]propyl}amino)-3-oxopropyl]amino}-4-{[4-(2,7-difluoro-6-hydroxy-3-oxo-3H-xanthen-9-yl)-3-methylbenzoyl]amino}-5-oxopentanoic acid]	1.68 ± 0.26 ×10^5	954 ± 285 nM						192 to 194 °C	
Cc1cc(C(=O)N[C@@H](CCC(=O)O)C(=O)NCCC(=O)NCCC(=O)N[C@H]2CC[C@@]3(C)C(=CC[C@H]4[C@@H]5CC[C@H]([C@H](C)CCCC(C)C)[C@@]5(C)CC[C@@H]43)C2)ccc1-c1c2cc(F)c(=O)cc-2oc2cc(O)c(F)cc12 [compound 10, (4S)-4-(4-(2,7-difluoro-6-hydroxy-3-oxo-3H-xanthen-9-yl)-3-methylbenzamido)-5-((3-((3-{[3β-cholest-5-en-3-yl]amino}-3-oxopropyl)amino)-3-oxopropyl)amino)-5-oxopentanoic acid]	1.86 ± 0.39 ×10^5	786 ± 358 nM	2.2 ± 0.30 ×10^5	639 ± 190 nM				192 to 194 °C	
Cc1cc(C(=O)N[C@@H](CCC(=O)O)C(=O)NCCC(=O)NCCC(=O)OC2CC[C@@]3(C)C(=CC[C@H]4[C@@H]5CC[C@H]([C@H](C)CCCC(C)C)[C@@]5(C)CC[C@@H]43)C2)ccc1-c1c2cc(F)c(=O)cc-2oc2cc(O)c(F)cc12 (stereo partly drawn) [compound 11, (4S)-4-(4-(2,7-difluoro-6-hydroxy-3-oxo-3H-xanthen-9-yl)-3-methylbenzamido)-5-((3-((3-{[3-cholester-3-yl]oxy}3-oxopropyl)amino)-3-oxopropyl)amino)-5-oxopentanoic acid]	NC^b (Not calculated due to low efficacy (Bmax<0.4×105))		NC^b (Not calculated due to low efficacy (Bmax<0.4×105))						
Cc1cc(C(=O)N[C@@H](CCC(=O)O)C(=O)NCC(=O)NCCNC(=O)OC2CC[C@@]3(C)C(=CC[C@H]4[C@@H]5CC[C@H]([C@H](C)CCCC(C)C)[C@@]5(C)CC[C@@H]43)C2)ccc1-c1c2cc(F)c(=O)cc-2oc2cc(O)c(F)cc12 (stereo partly drawn) [compound 12, (4S)-4-(4-(2,7-difluoro-6-hydroxy-3-oxo-3H-xanthen-9-yl)-3-methylbenzamido)-5-(3-((3-((({[3-cholester-3-y]oxy}carbonyl)amino)ethyl)amino)-2-oxoethyl)amino)-5-oxopentanoic acid]	NC^b (Not calculated due to low efficacy (Bmax<0.4×105))		NC^b (Not calculated due to low efficacy (Bmax<0.4×105))						substantially lower cellular binding and cellular uptake compared with compound 4
